Laboratory results: the supplement of paper PMC13380429

What was measured:
Settings in all cases: 72 h
Vero E6 [1] = assay: drug sensitivity score (DSS) for viability; higher = more toxic; extreme values may be limits of the assay
HepG2 [2] = assay: as above
U2OS [3] = assay: as above
Caco-2 [4] = assay: as above
Vero E6 [5] = assay: relative viability EC50 (midpoint between 100% and the lowest measured viability); higher = less toxic
HepG2 [6] = assay: as above
U2OS [7] = assay: as above
Caco-2 [8] = assay: as above
Vero E6 [9] = assay: cell viability relative to DMSO; higher = less toxic
HepG2 [10] = assay: as above
U2OS [11] = assay: as above
Caco-2 [12] = assay: as above
Calu-3 [13] = assay: drug sensitivity score (DSS) for viability; higher = more toxic; extreme values may be limits of the assay
Calu-3 [14] = assay: relative viability EC50 (midpoint between 100% and the lowest measured viability); higher = less toxic
Calu-3 [15] = assay: cell viability relative to DMSO; higher = less toxic

| SMILES | drug sensitivity score (Vero E6 [1]) | drug sensitivity score (HepG2 [2]) | drug sensitivity score (U2OS [3]) | drug sensitivity score (Caco-2 [4]) | relative viability EC50 (Vero E6 [5]) [µM] | relative viability EC50 (HepG2 [6]) [µM] | relative viability EC50 (U2OS [7]) [µM] | relative viability EC50 (Caco-2 [8]) [µM] | cell viability (Vero E6 [9]; 1 nM) [%] | cell viability (Vero E6 [9]; 10 nM) [%] | cell viability (Vero E6 [9]; 100 nM) [%] | cell viability (Vero E6 [9]; 1000 nM) [%] | cell viability (Vero E6 [9]; 10000 nM) [%] | cell viability (HepG2 [10]; 1 nM) [%] | cell viability (HepG2 [10]; 10 nM) [%] | cell viability (HepG2 [10]; 100 nM) [%] | cell viability (HepG2 [10]; 1000 nM) [%] | cell viability (HepG2 [10]; 10000 nM) [%] | cell viability (U2OS [11]; 1 nM) [%] | cell viability (U2OS [11]; 10 nM) [%] | cell viability (U2OS [11]; 100 nM) [%] | cell viability (U2OS [11]; 1000 nM) [%] | cell viability (U2OS [11]; 10000 nM) [%] | cell viability (Caco-2 [12]; 1 nM) [%] | cell viability (Caco-2 [12]; 10 nM) [%] | cell viability (Caco-2 [12]; 100 nM) [%] | cell viability (Caco-2 [12]; 1000 nM) [%] | cell viability (Caco-2 [12]; 10000 nM) [%] | drug sensitivity score (Calu-3 [13]) | relative viability EC50 (Calu-3 [14]) [µM] | cell viability (Calu-3 [15]; 1 nM) [%] | cell viability (Calu-3 [15]; 10 nM) [%] | cell viability (Calu-3 [15]; 100 nM) [%] | cell viability (Calu-3 [15]; 1000 nM) [%] | cell viability (Calu-3 [15]; 10000 nM) [%] |
| --- | --- | --- | --- | --- | --- | --- | --- | --- | --- | --- | --- | --- | --- | --- | --- | --- | --- | --- | --- | --- | --- | --- | --- | --- | --- | --- | --- | --- | --- | --- | --- | --- | --- | --- | --- |
| CC[C@@](C)(Nc1ccnc(-c2c[nH]c3ncccc23)n1)C(=O)NCC(F)(F)F [decernotinib] | 0 | 0 | 0 | 0 | > 10 | > 10 | > 10 | > 10 | 100 | 100 | 105 | 99.1 | 107 | 94.2 | 101 | 96.6 | 107 | 109 | 96.5 | 101 | 94.2 | 98.3 | 98 | 97.4 | 97.3 | 99 | 95.4 | 109 |  |  |  |  |  |  |  |
| Nc1ncnc2c1ncn2[C@H]1CC[C@@H](CO)O1 [dideoxyadenosine] | 0 |  | 0 | 0 | > 10 |  | > 10 | > 10 | 101 | 98 | 99.3 | 106 | 102 |  |  |  |  |  | 96.3 | 100 | 93.7 | 99.3 | 102 | 98.6 | 95.3 | 94.6 | 94.6 | 104 | 0 | > 10 | 98.8 | 95.4 | 89.1 | 107 | 108 |
| Clc1ccc(C(Cn2ccnc2)OCc2ccc(Sc3ccccc3)cc2)c(Cl)c1 (centres undefined) [fenticonazole] | 0 | 1 | 0 | 1.7 | > 10 |  | > 10 |  | 109 | 108 | 106 | 107 | 97.8 | 116 | 108 | 114 | 110 | 68.5 | 101 | 97.8 | 100 | 99.1 | 96 | 102 | 94.8 | 95 | 91.3 | 73.3 | 0.1 | > 10 | 100 | 88.6 | 97 | 101 | 85.7 |
| Oc1c(I)cc(I)c2cccnc12 [iodoquinol] | 1.5 | 3.5 | 0.4 | 2.4 |  | 3.15 | > 10 |  | 100 | 106 | 100 | 99.8 | 68.1 | 109 | 99 | 93.7 | 99.9 | 36.1 | 104 | 100 | 102 | 98.5 | 85.2 | 107 | 94.3 | 97.1 | 96.3 | 63.1 | 0 | > 10 | 106 | 98.6 | 99.7 | 93.4 | 98.4 |
| COc1c2occc2c(OC)c2c(=O)cc(C)oc12 [khellin] | 0 | 0.3 | 0 | 0 | > 10 | > 10 | > 10 | > 10 | 105 | 99.8 | 94.2 | 99.7 | 98.5 | 96.2 | 99.2 | 96.6 | 89 | 90.1 | 103 | 98.6 | 99.5 | 98.8 | 96.3 | 97.1 | 110 | 94.9 | 107 | 102 |  |  |  |  |  |  |  |
| COc1cc2nccc(Oc3ccc(NC(=O)NC4CC4)c(Cl)c3)c2cc1C(N)=O [lenvatinib] | 0 | 0 | 2 | 1.4 | > 10 | > 10 | > 10 | > 10 | 102 | 106 | 106 | 99.1 | 99.6 | 110 | 108 | 105 | 110 | 95.4 | 105 | 101 | 101 | 90.8 | 76.3 | 106 | 95.5 | 94.7 | 91.2 | 75.6 | 2.3 |  | 115 | 98.1 | 89.6 | 94.7 | 68.3 |
| O=C1[C@@H]2[C@H]3CC[C@H](C3)[C@@H]2C(=O)N1C[C@@H]1CCCC[C@H]1CN1CCN(c2nsc3ccccc23)CC1 [lurasidone] | 0 | 0.1 | 0 | 1.4 | > 10 | > 10 | > 10 |  | 104 | 102 | 103 | 99.6 | 97.2 | 106 | 106 | 99.5 | 96.9 | 89.2 | 104 | 107 | 95.9 | 102 | 88.4 | 94.5 | 100 | 99.6 | 104 | 64.5 | 0 | > 10 | 99.8 | 97.8 | 105 | 94.7 | 105 |
| CC#C[C@]1(O)CC[C@H]2[C@@H]3CCC4=CC(=O)CCC4=C3[C@@H](c3ccc(N(C)C)cc3)C[C@@]21C [mifepristone] | 0 | 0 | 0 | 1.2 | > 10 | > 10 | > 10 |  | 98 | 101 | 98.4 | 96.8 | 97.6 | 93.6 | 92.6 | 102 | 90.3 | 99 | 100 | 100 | 100 | 104 | 91.8 | 88.8 | 93.4 | 94.1 | 100 | 72 | 0 | > 10 | 96.2 | 103 | 88.7 | 96.3 | 109 |
| FC(F)(F)c1ccc(/C=C/c2nc(COc3ccc(CCCCn4ccnn4)cc3)co2)cc1 [mubritinib] | 0 | 10.8 | 0 | 3.1 | > 10 | 0.429 | > 10 | > 10 | 103 | 103 | 100 | 103 | 88.4 | 106 | 104 | 78.3 | 56 | 28.1 | 100 | 103 | 93.7 | 93.7 | 97.2 | 97.5 | 109 | 92.5 | 81.6 | 84.9 |  |  |  |  |  |  |  |
| O=C1CN(/N=C/c2ccc([N+](=O)[O-])o2)C(=O)N1 [nitrofurantoin] | 0 | 1.5 | 0 | 0 | > 10 |  | > 10 | > 10 | 92.4 | 95.1 | 98.4 | 96.7 | 97.4 | 98.4 | 111 | 113 | 109 | 60 | 104 | 97.9 | 101 | 101 | 103 | 101 | 101 | 95.8 | 89.9 | 103 | 0 | > 10 | 106 | 111 | 97.6 | 94.3 | 102 |
| Cc1nc2ccccn2c(=O)c1CCN1CCC(C(=O)c2ccc(F)cc2)CC1 [pirenperone] | 0 | 0 | 0 | 0 | > 10 | > 10 | > 10 | > 10 | 92.6 | 101 | 95.6 | 100 | 97.2 | 110 | 113 | 108 | 99.2 | 90.2 | 106 | 106 | 103 | 99.2 | 103 | 103 | 101 | 99.5 | 90.6 | 106 |  |  |  |  |  |  |  |
| CCc1nc(N)nc(N)c1-c1ccc(Cl)cc1 [pyrimethamine] | 2 | 1.6 | 0 |  |  | > 10 | > 10 |  | 96.3 | 93 | 103 | 99.9 | 60.7 | 108 | 91.5 | 102 | 93.2 | 77.9 | 100 | 108 | 99.8 | 102 | 96.8 |  |  |  |  |  | 0 | > 10 | 101 | 111 | 101 | 99 | 107 |
| C=C[C@](C)(O)CC[C@@H]1[C@@]2(C)CCCC(C)(C)[C@@H]2CC[C@@]1(C)O [sclareol] | 0 |  | 0 | 0 | > 10 |  | > 10 | > 10 | 101 | 100 | 102 | 99.6 | 104 |  |  |  |  |  | 107 | 96.6 | 96.4 | 98.8 | 94.6 | 101 | 98.8 | 99.7 | 102 | 87.6 | 0 | > 10 | 101 | 98.7 | 98.7 | 104 | 94.4 |
| Cc1cn([C@@H]2C[C@@H](O)[C@H](CO)O2)c(=O)[nH]c1=O [telbivudine] | 0 |  | 0 | 0 | > 10 |  | > 10 | > 10 | 98.8 | 97.6 | 92.3 | 85 | 99.3 |  |  |  |  |  | 97.8 | 103 | 96.8 | 99.1 | 105 | 92.6 | 108 | 99.8 | 106 | 116 | 0 | > 10 | 118 | 92.2 | 105 | 107 | 114 |
| CS(=O)(=O)c1ccc([C@@H](O)[C@@H](CO)NC(=O)C(Cl)Cl)cc1 [thiamphenicol] | 0 | 1.4 | 0 | 0 | > 10 |  | > 10 | > 10 | 95.8 | 99.3 | 92.3 | 96.8 | 98.1 | 101 | 110 | 93.4 | 101 | 67.3 | 99.5 | 97.5 | 105 | 96.6 | 99 | 99.7 | 89.8 | 91.7 | 93.4 | 94.4 | 0 | > 10 | 106 | 94.5 | 102 | 89.7 | 97.8 |
